# Structures can show the parent of a compound that is named as a salt.
# Columns and labels:
# [1] = tested on: surface protein CD184 expression in CD34+HSPCs; test: Preliminary screening: CD184 mean fluorescence intensity by flow cytometry; format: cell-based, human; settings: 16 hours treatment, three concentrations
# Description: (§1) According to the counting results in Example 1, 5×10^4CD34+ cells were added to each well of a 24-well plate, and the cells were cultured with 1 ml of complete medium per well for 24 hours.
# (§2) The next day, the compound was dissolved in DMSO and mixed, and then diluted with PBS to a specific concentration (see Table 3). An equal volume of 10 μl of the diluted compound per well was added to the cell culture medium, mixed well, and placed in an incubator for 16 hours.
# (§3) On the third day, an antibody pre-mixed solution was prepared: a solution of PBS+0.5% BSA was pre-mixed with fluorescent antibody BV510 conjugated anti-human CD34 (Biolegend clone 581), FITC conjugated anti-human CD90 (Biolegend, clone 5E10) and APCCy7 conjugated anti-human CD45RA (Biolegend, clone HI100), 50 μl/ml of each antibody was added, and stored in the dark.
# (§4) Cells were collected into centrifuge tubes, centrifuged at 400 g for 5 minutes. The supernatant was removed, added with 50 μl of antibody pre-mixed solution (containing 2.5 μl of each antibody) in each sample, resuspended and incubated at 4° C. for 20 minutes in the dark. The cells were washed with 1 ml of PBS added to each tube, centrifuged at 400 g for 5 minutes and resuspended with 50 μl of PBS+0.5% BSA solution. 2.5 μl of PE-conjugated anti-CD184 antibody (Biolegend, clone 12G5) was added to each sample, incubated at 37° C. for 30 minutes, washed, and stained with 7AAD to identify cell viability. Flow cytometry (Beckman Coulter CytoFLEX) was used to detect cell surface fluorescence, and the mean fluorescence intensity (MFI) and positive ratio of CD184 expression in HSPCs and LT-HSCs were analyzed, respectively. Among them, HSPCs are CD34+ cells, and LT-HSCs are CD34+CD90+CD45RA− cells.
# (1) Preliminary screening of compounds: 139 compounds were used for preliminary screening, among which 89 compounds were screened in rounds 1-5, and 50 compounds were screened in rounds 6-9. During the in vitro culture of CD34+HSPCs, they were treated for 16 hours by adding three concentrations of compounds to the complete medium. Then the mean fluorescence intensity of surface protein CD184 expression was detected by flow cytometry. 1.
# [2] = tested on: surface protein CD184 expression in CD34+HSPCs; test: Secondary screening: CD184 mean fluorescence intensity, ratio to control group; format: cell-based, human; settings: high concentration, 16 hours treatment, FIG. 2
# Description: as §1, §2, §3, §4
# (2) Secondary screening of compounds: the 13 compounds obtained from the preliminary screening were further verified using three concentrations of high, medium and low, with three replicates for each concentration. After 16 hours of treatment with the above-mentioned compounds, the average fluorescence intensity of surface protein CD184 expression was detected by flow cytometry. 2. Wherein, the data in the figure are the ratio of the mean CD184 fluorescence intensity of each group to the control group (Mock). (M344 is the positive control group; Mock is the negative control group untreated during culture.)
# [3] = tested on: NPG (NOD-scid Il2rg−/−) immunodeficient mice; test: Transplantation of treated human CD34+HSPCs into irradiated NPG mice; format: in vivo, mouse; settings: 17 weeks after transplantation; for differentiation of treated HSPCs in bone marrow, spleen and peripheral blood: FIG. 5B to 5D; for transplantation efficiency of cells in the bone marrow of NPG mice (hCD45+/(hCD45+ + mCD45+)×100%): HSPCs treated ex vivo, Mock group 64.7%
# From the text: The transplantation efficiency of hematopoietic stem cells refers to the ability of hematopoietic stem cells from human donor to effectively migrate to the recipient's bone marrow after intravenous injection into the recipient, maintain growth in the bone marrow microenvironment, and play a role in repopulating of the hematopoietic system. To verify the transplantation efficiency of hematopoietic stem cells in the experiment, human hematopoietic stem cells are transplanted into an immune-deficient mouse model, the blood and immune organs of the recipient mice are detected by flow cytometry, and the content of human donor cells (hCD45 positive cell ratio) is analyzed.
# Human CD34+HSPCs treated with Colchicine, Vinblastine sulfate or Lexibulin for a short time, or those in the control group were transplanted into NPG (NOD-scid Il2rg−/−) immunodeficient mice irradiated with 1.0 Gy, 8 mice in each group. 17 weeks after transplantation, cell transplantation efficiency in mouse bone marrow, and distribution proportion of human T cells labeled with human CD3, CD4 and CD8 antibodies, myeloid cells labeled with human CD33 antibody, B cells labeled with CD19 antibody, NK cells labeled with human CD56 antibody, and hematopoietic stem and progenitor cells labeled with human CD34 antibody in bone marrow, peripheral blood, and spleen were detected. The results are shown in FIG. 5A to FIG. 5D, where the transplantation efficiency=hCD45^+proportion/(hCD45^+proportion+mCD45^+proportion)×100%
structure (smiles),measurement,setting,value
c1cc(-c2cnn3cc(-c4ccc(N5CCNCC5)cc4)cnc23)c2cccnc2c1 [LND-212854],expression of CD184 in CD34+HSPCs (mean fluorescence intensity),[1],can enhance the expression of CD184
O=C(Nc1cccc2cccnc12)c1ccc(N2C(=O)[C@@H]3[C@H](C2=O)[C@@H]2C=C[C@H]3C2)cc1 [IWR-1-endo],expression of CD184 in CD34+HSPCs (mean fluorescence intensity),[1],can enhance the expression of CD184
CCC[C@H](Nc1nc(-c2ccc(NC(=O)NCC)c(OC)c2)ncc1C)c1cccnc1 [Lexibulin],expression of CD184 in CD34+HSPCs (mean fluorescence intensity),[1],can enhance the expression of CD184
same,expression of CD184 relative to positive control M344,[2],~2 times
same,"differentiation of treated HSPCs in bone marrow, spleen and peripheral blood",[3],"can differentiate into T cells, myeloid cells, B cells and NK cells"
same,transplantation efficiency of cells in the bone marrow of NPG mice (hCD45+/(hCD45+ + mCD45+)×100%),[3],82.46%
Cc1c[nH]c(-c2cnc(NCCNc3ccc(C#N)cn3)nc2-c2ccc(Cl)cc2Cl)n1 [CHIR99021],expression of CD184 in CD34+HSPCs (mean fluorescence intensity),[1],can enhance the expression of CD184
CC[C@]1(O)C[C@@H]2CN(CCc3c([nH]c4ccccc34)[C@@](C(=O)OC)(c3cc4c(cc3OC)N(C)[C@H]3[C@@](O)(C(=O)OC)[C@H](OC(C)=O)[C@]5(CC)C=CCN6CC[C@]43[C@@H]65)C2)C1 [Vinblastine sulfate],expression of CD184 in CD34+HSPCs (mean fluorescence intensity),[1],can enhance the expression of CD184
same,expression of CD184 relative to positive control M344,[2],~2 times
same,"differentiation of treated HSPCs in bone marrow, spleen and peripheral blood",[3],"can differentiate into T cells, myeloid cells, B cells and NK cells"
same,transplantation efficiency of cells in the bone marrow of NPG mice (hCD45+/(hCD45+ + mCD45+)×100%),[3],80.73%
COC(=O)Nc1nc2ccc(C(=O)c3cccs3)cc2[nH]1 [Nocodazole],expression of CD184 in CD34+HSPCs (mean fluorescence intensity),[1],can enhance the expression of CD184
N#Cc1c(NC(=O)c2cccc3ccccc23)sc2c1CCCC2 [JNK-inhibitor IX],expression of CD184 in CD34+HSPCs (mean fluorescence intensity),[1],can enhance the expression of CD184
COC[C@H]1Cn2cc(-c3nc(Nc4ccnn4C)ncc3C)nc2C(=O)N1Cc1ccc(F)c(F)c1 [AZD0364],expression of CD184 in CD34+HSPCs (mean fluorescence intensity),[1],can enhance the expression of CD184
O=C(NC[C@H](O)CO)c1ccncc1Nc1ccc(I)cc1F [Pimasertib],expression of CD184 in CD34+HSPCs (mean fluorescence intensity),[1],can enhance the expression of CD184
COc1cc2c(c(OC)c1OC)-c1ccc(OC)c(=O)cc1[C@@H](NC(C)=O)CC2 [Colchicine],expression of CD184 in CD34+HSPCs (mean fluorescence intensity),[1],can enhance the expression of CD184
same,expression of CD184 relative to negative control (Mock),[2],2.6 times
same,expression of CD184 relative to positive control M344,[2],comparable effects to M344
same,"differentiation of treated HSPCs in bone marrow, spleen and peripheral blood",[3],"can differentiate into T cells, myeloid cells, B cells and NK cells"
same,transplantation efficiency of cells in the bone marrow of NPG mice (hCD45+/(hCD45+ + mCD45+)×100%),[3],65.84%
O=C(Nc1ccc2[nH]nc(-c3ccncc3)c2c1)[C@@H]1CCN(CC(=O)N2CCN(c3ccc(-c4ncccn4)cc3)CC2)C1 [SCH772984],expression of CD184 in CD34+HSPCs (mean fluorescence intensity),[1],can enhance the expression of CD184
C/C(=C\c1ccc(C(=O)O)cc1)c1ccc2c(c1)C(C)(C)CCC2(C)C [TTNPB],expression of CD184 in CD34+HSPCs (mean fluorescence intensity),[1],can enhance the expression of CD184

# Reference: patent publication US20240026295A1, “USE OF COMPOUND FOR IMPROVING TRANSPLANTATION EFFICIENCY OF HUMAN HEMATOPOIETIC STEM CELLS” (EDIGENE (GUANGZHOU) INC., priority 2020, published 2024)
